{
  "source": "paper PMC6266789",
  "about": "(Viruses, 2018)",
  "tested_on": "NA of pH1N1 influenza virus recovered from lungs of IS mice",
  "assay_type": "biochemical, influenza A(H1N1)pdm09",
  "data": [
    {"smiles": "CCOC(=O)C1=C[C@@H](OC(CC)CC)[C@H](NC(C)=O)[C@@H](N)C1", "note": "[Oseltamivir, oseltamivir]", "values": [
      {"measurement": "oseltamivir resistance phenotype associated with H275Y by NAI assay", "result": "not detected"}
    ]}
  ]
}
